Measured values reported in ChEMBL document CHEMBL1131994, “Discovery of subtype-selective NMDA receptor ligands: 4-benzyl-1-piperidinylalkynylpyrroles, pyrazoles and imidazoles as NR1A/2B antagonists” (Bioorg Med Chem Lett, 1999).

Key:
[1] = target: Glutamate NMDA receptor; Grin1/Grin2a (Rattus norvegicus, UniProt P35439+Q00959); assay: Compound was tested in vitro for inhibition of NMDA response at cloned NR1A/2A receptor expressed in Xenopus oocytes; format: cell-based, frog, Oocyte
[2] = system: Rattus norvegicus; assay: Compound was tested in vivo for potentiation of L-DOPA effect in 6-hydroxydopamine-lesioned rat when administered per orally; format: functional; conditions: po, read-out: MED
[3] = target: T1, Glutamate receptor ionotropic, NMDA 2C (Rattus norvegicus, UniProt P35439+Q00961); assay: Compound was tested in vitro for inhibition of NMDA response at cloned NR1A/2C receptor expressed in Xenopus oocytes; format: cell-based, frog, Oocyte
T1 sequence (Q00961 whole entry, one chain of several): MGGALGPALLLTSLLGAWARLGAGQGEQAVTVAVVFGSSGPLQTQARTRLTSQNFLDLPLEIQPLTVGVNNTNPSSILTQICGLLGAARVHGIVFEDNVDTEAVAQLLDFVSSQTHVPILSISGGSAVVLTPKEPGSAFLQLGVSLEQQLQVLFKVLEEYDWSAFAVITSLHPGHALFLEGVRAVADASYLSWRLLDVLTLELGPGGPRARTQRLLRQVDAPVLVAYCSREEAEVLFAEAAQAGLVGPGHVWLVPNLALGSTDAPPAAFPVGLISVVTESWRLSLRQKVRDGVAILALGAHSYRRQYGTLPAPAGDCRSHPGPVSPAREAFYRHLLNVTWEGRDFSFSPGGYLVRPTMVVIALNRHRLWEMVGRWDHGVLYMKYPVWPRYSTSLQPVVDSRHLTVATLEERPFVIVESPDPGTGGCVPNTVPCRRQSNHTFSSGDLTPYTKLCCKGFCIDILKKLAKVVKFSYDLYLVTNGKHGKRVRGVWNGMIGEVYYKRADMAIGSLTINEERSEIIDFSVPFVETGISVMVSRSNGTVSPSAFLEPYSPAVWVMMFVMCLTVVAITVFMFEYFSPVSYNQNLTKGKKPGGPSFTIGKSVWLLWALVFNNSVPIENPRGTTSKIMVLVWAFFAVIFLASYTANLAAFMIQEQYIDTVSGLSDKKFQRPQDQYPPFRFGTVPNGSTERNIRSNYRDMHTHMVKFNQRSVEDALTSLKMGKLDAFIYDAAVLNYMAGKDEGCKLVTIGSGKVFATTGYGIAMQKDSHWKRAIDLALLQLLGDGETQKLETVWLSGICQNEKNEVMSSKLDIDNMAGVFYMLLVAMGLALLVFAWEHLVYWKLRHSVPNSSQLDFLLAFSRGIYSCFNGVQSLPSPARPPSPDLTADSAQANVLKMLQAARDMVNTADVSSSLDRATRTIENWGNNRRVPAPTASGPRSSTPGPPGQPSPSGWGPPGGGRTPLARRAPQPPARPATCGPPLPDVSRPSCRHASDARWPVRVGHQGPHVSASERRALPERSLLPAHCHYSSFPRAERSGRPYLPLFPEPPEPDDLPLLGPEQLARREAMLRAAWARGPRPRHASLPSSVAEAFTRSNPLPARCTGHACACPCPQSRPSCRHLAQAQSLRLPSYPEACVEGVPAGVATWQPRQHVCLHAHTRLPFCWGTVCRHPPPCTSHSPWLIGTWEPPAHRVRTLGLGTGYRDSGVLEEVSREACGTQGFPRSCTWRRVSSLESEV

[4] = target: T2, Glutamate NMDA receptor; Grin1/Grin2b (Rattus norvegicus, UniProt P35439+Q00960); assay: Inhibition of NMDA response at NR1A/2B receptor expressed in Xenopus oocytes; format: cell-based, Oocyte
Target sequence in this assay (Q00960 whole entry, other chains not shown): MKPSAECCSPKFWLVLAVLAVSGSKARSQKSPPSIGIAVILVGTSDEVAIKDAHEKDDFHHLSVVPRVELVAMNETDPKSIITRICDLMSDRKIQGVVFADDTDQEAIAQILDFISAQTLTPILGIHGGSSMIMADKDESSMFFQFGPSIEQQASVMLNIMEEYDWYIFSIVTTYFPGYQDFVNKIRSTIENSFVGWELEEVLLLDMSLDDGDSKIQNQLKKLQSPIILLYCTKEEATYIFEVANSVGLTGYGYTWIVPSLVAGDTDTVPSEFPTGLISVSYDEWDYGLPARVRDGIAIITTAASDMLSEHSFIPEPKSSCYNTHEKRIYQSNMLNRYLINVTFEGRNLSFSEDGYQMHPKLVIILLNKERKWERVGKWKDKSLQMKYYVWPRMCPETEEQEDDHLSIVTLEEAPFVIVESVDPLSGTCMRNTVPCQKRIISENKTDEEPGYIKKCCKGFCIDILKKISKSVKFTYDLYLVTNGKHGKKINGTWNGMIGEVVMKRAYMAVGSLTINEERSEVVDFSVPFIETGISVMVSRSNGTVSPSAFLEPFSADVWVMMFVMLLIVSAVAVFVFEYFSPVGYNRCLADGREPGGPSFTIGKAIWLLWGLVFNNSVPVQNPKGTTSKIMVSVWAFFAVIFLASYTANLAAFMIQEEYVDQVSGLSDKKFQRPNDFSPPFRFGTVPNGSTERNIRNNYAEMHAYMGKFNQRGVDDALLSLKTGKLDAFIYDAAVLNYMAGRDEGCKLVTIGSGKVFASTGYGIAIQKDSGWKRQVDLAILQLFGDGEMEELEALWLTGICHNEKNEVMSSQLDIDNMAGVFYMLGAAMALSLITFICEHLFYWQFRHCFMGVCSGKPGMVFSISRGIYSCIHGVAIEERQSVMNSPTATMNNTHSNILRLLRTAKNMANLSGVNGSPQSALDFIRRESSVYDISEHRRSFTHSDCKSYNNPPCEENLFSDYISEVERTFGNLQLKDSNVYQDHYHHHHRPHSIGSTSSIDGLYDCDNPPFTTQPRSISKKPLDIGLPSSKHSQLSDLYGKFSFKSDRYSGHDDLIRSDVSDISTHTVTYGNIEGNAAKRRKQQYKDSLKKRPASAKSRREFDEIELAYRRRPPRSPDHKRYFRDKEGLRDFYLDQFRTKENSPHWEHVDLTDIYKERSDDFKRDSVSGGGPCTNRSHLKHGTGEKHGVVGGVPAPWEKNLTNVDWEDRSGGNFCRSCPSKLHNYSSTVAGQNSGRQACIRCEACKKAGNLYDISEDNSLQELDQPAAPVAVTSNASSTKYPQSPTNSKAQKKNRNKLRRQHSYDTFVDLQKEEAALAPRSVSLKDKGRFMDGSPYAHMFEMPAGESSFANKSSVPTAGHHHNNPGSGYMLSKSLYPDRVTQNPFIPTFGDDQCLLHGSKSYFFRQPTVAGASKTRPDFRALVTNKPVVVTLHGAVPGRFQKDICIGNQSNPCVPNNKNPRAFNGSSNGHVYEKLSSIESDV

[5] = target: T2, Glutamate NMDA receptor; Grin1/Grin2b; assay: The compound was tested in vitro for activity against NR1A/2B sub type of NMDA receptor; set-up: species or system frog
[6] = target: T1, Glutamate receptor ionotropic, NMDA 2C; assay: The compound was tested in vitro for activity against NR1A/2C sub type of NMDA receptor; set-up: species or system frog

Chain of Glutamate NMDA receptor; Grin1/Grin2a (Q00959 whole entry, looked up, other chains not shown): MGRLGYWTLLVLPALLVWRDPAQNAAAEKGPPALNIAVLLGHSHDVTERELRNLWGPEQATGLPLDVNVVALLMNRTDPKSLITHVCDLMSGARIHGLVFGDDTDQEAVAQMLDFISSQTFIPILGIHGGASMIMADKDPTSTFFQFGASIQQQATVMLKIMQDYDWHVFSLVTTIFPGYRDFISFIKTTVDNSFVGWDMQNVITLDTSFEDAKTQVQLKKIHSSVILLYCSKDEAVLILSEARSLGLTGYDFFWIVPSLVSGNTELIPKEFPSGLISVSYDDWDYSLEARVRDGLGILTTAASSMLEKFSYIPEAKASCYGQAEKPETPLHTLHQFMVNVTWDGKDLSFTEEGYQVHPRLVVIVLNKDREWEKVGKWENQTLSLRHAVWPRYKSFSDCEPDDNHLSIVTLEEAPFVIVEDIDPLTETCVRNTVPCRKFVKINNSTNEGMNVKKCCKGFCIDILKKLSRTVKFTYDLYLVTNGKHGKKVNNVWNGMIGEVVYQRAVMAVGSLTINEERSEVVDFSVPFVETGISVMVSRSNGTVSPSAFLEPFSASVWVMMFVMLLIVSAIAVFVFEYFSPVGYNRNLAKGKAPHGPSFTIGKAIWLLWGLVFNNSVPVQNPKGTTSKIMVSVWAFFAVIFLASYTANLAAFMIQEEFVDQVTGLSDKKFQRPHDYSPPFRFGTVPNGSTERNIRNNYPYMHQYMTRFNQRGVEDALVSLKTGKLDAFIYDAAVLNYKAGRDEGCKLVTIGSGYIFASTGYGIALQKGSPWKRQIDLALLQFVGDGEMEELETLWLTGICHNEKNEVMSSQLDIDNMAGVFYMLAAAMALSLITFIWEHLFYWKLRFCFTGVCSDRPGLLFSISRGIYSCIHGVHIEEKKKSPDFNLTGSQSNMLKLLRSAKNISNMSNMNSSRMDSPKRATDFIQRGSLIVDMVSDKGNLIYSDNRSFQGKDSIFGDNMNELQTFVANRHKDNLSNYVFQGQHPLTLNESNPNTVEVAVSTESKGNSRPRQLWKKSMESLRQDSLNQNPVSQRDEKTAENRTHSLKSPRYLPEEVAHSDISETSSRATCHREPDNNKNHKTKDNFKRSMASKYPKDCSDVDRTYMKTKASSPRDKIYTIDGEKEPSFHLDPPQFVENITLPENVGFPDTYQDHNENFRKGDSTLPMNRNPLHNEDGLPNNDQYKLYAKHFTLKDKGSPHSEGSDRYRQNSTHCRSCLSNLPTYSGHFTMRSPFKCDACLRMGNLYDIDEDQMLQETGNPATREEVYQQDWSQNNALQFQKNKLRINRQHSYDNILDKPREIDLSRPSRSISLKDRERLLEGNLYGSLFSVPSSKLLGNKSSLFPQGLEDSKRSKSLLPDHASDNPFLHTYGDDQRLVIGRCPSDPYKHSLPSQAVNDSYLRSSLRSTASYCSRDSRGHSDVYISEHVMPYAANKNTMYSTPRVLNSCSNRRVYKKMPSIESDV

IC50 [1] [µM]	IC50 [3] [µM]	IC50 [4] [µM]	SMILES	minimal effective dose [2] [mg/kg]	IC50 [5] [µM]	IC50 [6] [µM]
67	> 100	0.074	C(#Cc1cn[nH]c1)CCN1CCC(Cc2ccccc2)CC1	30	–	–
40	> 100	0.05	Fc1ccc(CC2CCN(CCC#Cc3c[nH]cn3)CC2)cc1	> 10	–	–
53	70	0.037	C(#Cc1cnc[nH]1)CCN1CCC(Cc2ccccc2)CC1	3	–	–
> 100	> 100	0.22	OC1(Cc2ccccc2)CCN(CCC#Cc2c[nH]cn2)CC1	> 10	–	–
53	56	1.1	C(#Cc1cc[nH]c1)CN1CCC(Cc2ccccc2)CC1	–	–	–
51	> 100	0.19	C(#Cc1cc[nH]c1)CCN1CCC(Cc2ccccc2)CC1	30	–	–
16	38	0.02	Cc1ccc(CC2CCN(CCC#Cc3c[nH]cn3)CC2)cc1	10	–	–
26	80	0.028	Clc1ccc(CC2CCN(CCC#Cc3cnc[nH]3)CC2)cc1	10	–	–
1.4	5	0.81	C(#Cc1cnc[nH]1)CCN1CCC(c2ccccc2)CC1	–	–	–
38	34	0.12	C(#Cc1cnc[nH]1)CN1CCC(Cc2ccccc2)CC1	10	–	–

SMILES	IC50 [1] [µM]	IC50 [3] [µM]	IC50 [4] [µM]	minimal effective dose [2] [mg/kg]	IC50 [5] [µM]	IC50 [6] [µM]
C(#Cc1cn[nH]c1)CN1CCC(Cc2ccccc2)CC1	> 100	–	–	–	0.82	> 100
OC1(c2ccccc2)CCN(CCC#Cc2c[nH]cn2)CC1	8.4	36	3.5	–	–	–
